US4980377A, “1-(aminophenyl)-2-aminopropanone derivatives” (Laboratoire L. Lafon, priority 1984, dated 1990)
Entries after “also recorded” stand apart in the source; their conditions may differ. Counter-ions that a name gives are not always drawn.

Key:
[1] = Particular toxicity in grouped mice; conditions: mouse, in vivo, ip
Method: The number of dead animals is noted after 1 hour, 2 hours, 3 hours, 4 hours and 24 hours.

mice [2] = test: Four plate test, traction and electric shock; type: in vivo, mouse; conditions: i.p.
Method: The test is performed on groups of 10 mice 30 minutes after the administration of CRL 41 153.

mice [3] = test: Overall behavior and reactivities in mice; type: in vivo, mouse; conditions: dose not stated
Method: (§1) In the neuropsychopharmacological study which follows, a solution of CRL 41 153 in distilled water (pH 1.5) was administered intraperitoneally in a volume of 20 ml/kg to male mice and 5 ml/kg to male rats.
(§2) Groups of three animals are observed before and then 0.25 hour, 0.50 hour, 1 hour, 2 hours, 3 hours and 24 hours after the administration of CRL 41 153.

mice [4] = test: Interaction with apomorphine in mice; type: in vivo, mouse; conditions: i.p.
Method: Groups of 6 mice receive CRL 41 153 0.5 hour before the subcutaneous injection of 1 or 16 mg/kg of apomorphine.

rats [5] = test: Overall behavior and reactivities in rats; type: in vivo, rat; conditions: dose not stated
Method: as §1, §2

rats [6] = test: Interaction with amphetamine; type: in vivo, rat; conditions: i.p.
Method: Amphetamine (2 mg/kg) is injected intraperitoneally into groups of 6 rats 30 minutes after the administration of CRL 41 153. […] 4 mg/kg and 16 mg/kg, CRL 41 153 potentiates the intensity and duration of the stereotypies induced by amphetamine.

CNS = test: Neuropsychopharmacological profile as a whole; type: in vivo, mice and rats
Method: as §1

mice [7] = test: Interaction with oxotremorine; type: in vivo, mouse; conditions: i.p.
Method: CRL 41 153 is administered to groups of 6 mice 0.5 hour before the intraperitoneal injection of 0.5 mg/kg of oxotremorine.

mice [8] = test: Behavioral despair; type: in vivo, mouse; conditions: forcibly immersed mice, i.p.
Source text: Half an hour after they have received CRL 41 153, groups of 6 mice are placed in a beaker filled with water to a height of 6 cm. The total period of immobility between the 2nd and 6th minutes following immersion is noted.

mice [9] = test: Motility reduced by habituation to the enclosure; type: in vivo, mouse; conditions: i.p.
Method: After they have stayed In the actimeters for 18 hours, (he mice (6 per dose, 12 control animals) receive CRL 41 153. They are immediately returned to their respective enclosures and, half an hour later, their motility is recorded for 30 minutes.

[10] = tested on: gravid White New Zealand female rabbits; test: Teratogenicity in gravid White New Zealand rabbits; type: in vivo, rabbit; conditions: day 5 to day 18 of gestation; for Affected foetuses, %: normal limit 1.5%
Method in brief: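 Fetuses harvested by cesarean on gestation day 29 were scored for number and for any malformation (limb blockade, anury, tail or skull defects, exencephaly).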

[11] = pH of solutions in distilled water; type: physicochemical
Method: The neuropsychopharmacological study was undertaken according to the procedures described above for CRL 41 153, CRL 41 213 being adminstered intraperitoneally, in solution in distilled water, in a volume of 20 ml/kg to male mice and a volume of 5 ml/kg to male rats, and the pH of the injected solution varying with the concentration of CRL 41 213 according to the data given in Table II below.

mice [12] = test: Spontaneous motility; type: in vivo, mouse; conditions: i.p.
Method: 0.5 hour after they have received CRL 41 153, the mice (6 per dose, 12 control animals) are placed in an actimeter, where their motility is recorded for 30 minutes.

mice [13] = test: Motility reduced by hypoxic aggression; type: in vivo, mouse; conditions: i.p.
Method: Half an hour after they have received CRL 41 153, the mice (10 per dose, 20 control animals) are subjected to acute hypobaric anoxia [pressure reduction of 600 mm Hg (i.e. about 8×10^4 Pa) in 90 seconds; release of vacuum in 45 seconds] and are then placed in an actimeter, where their motility is recorded for 10 minutes.

mice [14] = test: Interaction with barbital; type: in vivo, mouse; conditions: i.p., barbital 220 mg/kg
Method: Half an hour after the administration of CRL 41 153, groups of 10 mice receive an intraperitoneal injection of barbital (220 mg/kg).

rats [15] = test: Interaction with apomorphine in rats; type: in vivo, rat; conditions: i.p.
Method: CRL 41 153 is administered to groups of 6 rats 0.5 hour before the subcutaneous injection of 0.5 mg/kg of apomorphine.

mice [16] = test: Interaction with reserpine; type: in vivo, mouse; conditions: i.p.
Method: Four hours after the intraperitoneal injection of 2.5 mg/kg of reserpine, groups of 6 mice receive CRL 41 153.

immunity = test: Immunological study (overall); conditions: in vivo

SMILES: COC(=O)C(c1ccccc1)C1CCCCN1 (stereo not shown) [methylphenidate, reference compound]
- selectivity ratio [1]: ~6

SMILES: CN1Cc2c(N)cccc2C(c2ccccc2)C1 (stereo not shown) [nomifensin, reference compound]
- selectivity ratio [1]: ~4

SMILES: CNC(C)C(=O)c1ccc(N)cc1 (stereo not shown) [CRL 41 218, 1-4-aminophenyl)-2-methylaminopropanone dihydrochloride]
- Effect on convulsant effects of electric shock (mice [2]): antagonism, at strong doses, of the convulsant effects of electric shock
- Overall behavior: observed effects (summary) (mice [3]): excitation in mice and rats
- Stereotype movements (summary) (mice [3]): presence of stereotype movements
- Effect on hypothermia induced by apomorphine (mice [4]): antagonism of the hypothermia
- Overall behavior: observed effects (summary) (rats [5]): excitation in mice and rats
- Stereotype movements (summary) (rats [5]): presence of stereotype movements
- Effect on stereotypies induced by amphetamine (rats [6]): potentiation of the stereotypies
- Anticonvulsant effects (overall) (CNS; conclusion of the tests): anticonvulsant effects
- Antidepressant effects (overall) (CNS; conclusion of the tests): antidepressant effects
- Stimulant effects (overall) (CNS; conclusion of the tests): stimulant effects
- α-adrenergic stimulant effects (overall) (CNS; conclusion of the tests): α-adrenergic stimulant effects
- Peripheral α-adrenergic signs (mydriasis, salivation, lacrimation, exophthalmos) (CNS; species and dose not stated, dihydrochloride): mydriasis; also recorded: salivation
- Effect on hypothermic action of oxotremorine (mice [7]): antagonism of the hypothermia
- Period of immobility due to despair (mice [8]): a reduction in the period of immobility
- Motor activity of mice accustomed to their enclosure (mice [9]): resumption in the motor activity of mice accustomed to their enclosure
- Affected foetuses, number ([10]; 50 mg/kg daily): 1
- Total foetuses (live) ([10]; 50 mg/kg daily): 79
- Affected foetuses, % ([10]; 50 mg/kg daily): 1.26%
- pH ([11]; 6 g/liter in distilled water): 5.0
- pH ([11]; 13 g/liter in distilled water): 4.5
- pH ([11]; 50 g/liter in distilled water): 4.0
- pH ([11]; ≤3 g/liter in distilled water): 5.5
- Spontaneous motor activity (mice [12]): increase in the motor activity
- Motor recovery of mice after hypobaric hypoxia (mice [13]): improvement in the motor recovery
- Duration of the sleep induced by barbital (mice [14]): distinct antagonism of the sleep induced by barbital
- Effect on stereotypies induced by apomorphine (rats [15]): potentiation of the stereotypies
- Effect on hypothermia induced by reserpine (mice [16]): antagonism of the hypothermia
- Effect on ptosis induced by reserpine (mice [16]): antagonism of the ptosis induced by reserpine

SMILES: CC(C(=O)c1ccc(N)cc1)N1CCSCC1 (stereo not shown) [CRL 41 248]
- Affected foetuses, number ([10]; 10 mg/kg daily): 1
- Total foetuses (live) ([10]; 10 mg/kg daily): 93
- Affected foetuses, % ([10]; 10 mg/kg daily): 1.07%
- pH ([11]; 0.05 g/liter in distilled water): 5.0
- pH ([11]; 0.1 g/liter in distilled water): 4.5
- pH ([11]; 0.2 g/liter in distilled water): 4.0
- pH ([11]; 0.4 g/liter in distilled water): 3.5
- pH ([11]; 1.2-0.8 g/liter in distilled water): 3.0
- pH ([11]; 3.2 g/liter in distilled water): 2.5
- pH ([11]; 6.4 g/liter in distilled water): 2.0
- pH ([11]; 50 g/liter in distilled water): 1.5
- pH ([11]; ≤0.025 g/liter in distilled water): 5.5
- Immunological effect (overall) (immunity): immunostimulant or immunomodulating effects
